Results as given in patent US9751887B2, “Imidazo[1,2-b]pyridazine derivatives as kinase inhibitors” (Daiichi Sankyo Company, Limited, priority 2012, dated 2017).
Structures can show the parent of a compound that is named as a salt.

Assays:
ROS1 [1] = biological target: T1, ROS1 (Homo sapiens, UniProt P08922); experiment: ROS1 kinase inhibitory activity evaluation (mobility shift, EZ Reader II); type: biochemical; settings: ROS1 25 pg/μL, FL-Peptide 22 substrate, three separate measurements
T1 construct: purchased Carna Biosciences 08-163
T1 sequence (P08922 28-2347): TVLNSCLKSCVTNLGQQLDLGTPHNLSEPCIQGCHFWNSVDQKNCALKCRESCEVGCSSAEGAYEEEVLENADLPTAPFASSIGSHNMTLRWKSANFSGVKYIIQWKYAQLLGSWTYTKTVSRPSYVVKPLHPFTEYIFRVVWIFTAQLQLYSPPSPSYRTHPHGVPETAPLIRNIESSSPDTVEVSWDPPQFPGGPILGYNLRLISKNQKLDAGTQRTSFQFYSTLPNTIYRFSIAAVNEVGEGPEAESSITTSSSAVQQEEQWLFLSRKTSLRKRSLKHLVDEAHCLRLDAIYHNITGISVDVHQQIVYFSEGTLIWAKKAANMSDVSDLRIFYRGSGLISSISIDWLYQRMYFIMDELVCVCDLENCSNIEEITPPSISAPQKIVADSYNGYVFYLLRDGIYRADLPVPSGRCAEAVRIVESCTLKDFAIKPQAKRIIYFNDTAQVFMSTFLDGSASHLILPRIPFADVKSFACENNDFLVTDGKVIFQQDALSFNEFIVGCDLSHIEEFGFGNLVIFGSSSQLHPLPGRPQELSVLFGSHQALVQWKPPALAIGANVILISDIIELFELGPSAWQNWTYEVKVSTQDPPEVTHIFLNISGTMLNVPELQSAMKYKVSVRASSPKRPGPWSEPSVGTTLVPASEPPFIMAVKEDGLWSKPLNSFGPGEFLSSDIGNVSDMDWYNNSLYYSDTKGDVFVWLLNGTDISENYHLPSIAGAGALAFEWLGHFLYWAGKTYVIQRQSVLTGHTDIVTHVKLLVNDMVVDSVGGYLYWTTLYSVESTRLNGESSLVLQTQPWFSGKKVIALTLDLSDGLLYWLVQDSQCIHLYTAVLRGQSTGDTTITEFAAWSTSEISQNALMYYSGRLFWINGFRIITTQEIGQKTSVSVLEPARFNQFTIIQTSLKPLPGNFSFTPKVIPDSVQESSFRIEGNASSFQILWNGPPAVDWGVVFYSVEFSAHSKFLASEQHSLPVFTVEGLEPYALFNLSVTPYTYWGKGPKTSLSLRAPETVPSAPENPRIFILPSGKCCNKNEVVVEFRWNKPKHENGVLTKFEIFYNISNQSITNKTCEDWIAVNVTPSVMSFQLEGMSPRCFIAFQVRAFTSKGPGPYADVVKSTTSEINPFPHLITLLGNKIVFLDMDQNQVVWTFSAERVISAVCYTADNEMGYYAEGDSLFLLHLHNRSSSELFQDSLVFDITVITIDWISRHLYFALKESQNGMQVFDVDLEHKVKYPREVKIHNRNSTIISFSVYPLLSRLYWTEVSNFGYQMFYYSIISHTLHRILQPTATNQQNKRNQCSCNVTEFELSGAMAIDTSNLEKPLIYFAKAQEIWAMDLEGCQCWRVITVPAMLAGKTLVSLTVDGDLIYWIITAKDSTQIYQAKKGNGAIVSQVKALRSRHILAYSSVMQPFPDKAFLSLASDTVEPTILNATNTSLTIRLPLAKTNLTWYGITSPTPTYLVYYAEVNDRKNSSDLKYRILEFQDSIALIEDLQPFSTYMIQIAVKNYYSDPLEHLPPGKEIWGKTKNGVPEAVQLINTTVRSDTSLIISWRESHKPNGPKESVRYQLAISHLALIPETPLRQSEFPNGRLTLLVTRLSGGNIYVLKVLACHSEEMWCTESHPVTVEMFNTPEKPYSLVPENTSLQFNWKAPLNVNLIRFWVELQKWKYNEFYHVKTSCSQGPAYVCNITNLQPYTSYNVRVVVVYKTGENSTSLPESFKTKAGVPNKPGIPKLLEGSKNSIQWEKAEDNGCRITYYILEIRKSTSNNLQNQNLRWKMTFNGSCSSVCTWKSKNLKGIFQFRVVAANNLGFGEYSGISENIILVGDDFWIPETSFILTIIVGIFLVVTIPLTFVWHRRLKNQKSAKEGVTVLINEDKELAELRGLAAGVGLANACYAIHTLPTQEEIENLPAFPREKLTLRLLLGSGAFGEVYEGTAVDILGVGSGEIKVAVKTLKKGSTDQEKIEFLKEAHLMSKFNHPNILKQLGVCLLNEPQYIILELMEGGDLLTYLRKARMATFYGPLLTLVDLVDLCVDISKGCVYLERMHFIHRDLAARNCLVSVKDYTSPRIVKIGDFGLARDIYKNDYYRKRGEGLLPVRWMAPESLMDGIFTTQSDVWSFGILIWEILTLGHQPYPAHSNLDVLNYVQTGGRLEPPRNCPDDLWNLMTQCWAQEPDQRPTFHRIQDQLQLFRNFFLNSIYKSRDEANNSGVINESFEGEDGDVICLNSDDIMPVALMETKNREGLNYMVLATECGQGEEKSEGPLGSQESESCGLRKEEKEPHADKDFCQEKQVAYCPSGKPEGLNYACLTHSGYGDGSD
Method: Next, a substrate reaction solution was prepared. […] Then, the reaction stop solution was added thereto at a concentration of 40 μL/well. Substrate phosphorylation intensity was measured using EZ Reader II (Caliper Life Sciences).

ROS1 [2] = biological target: T1, ROS1; experiment: ROS1 autophosphorylation inhibitory activity evaluation (ADP-Glo); type: biochemical; settings: 200 nM inactive ROS1, ATP 1 mM, 25° C. 1.5 hours, ADP generated, four separate measurements
Method: Fifty mM HEPES (pH 7.5), 10 mM MgCl2, 0.01% Brij-58, and 2.5 mM DTT were mixed to prepare an enzymatic reaction solution. […] ATP (final concentration: 1 mM) was further added thereto at a concentration of 2.5 μL/well. The resulting plate was left standing at 25° C. for 1.5 hours to cause enzymatic reaction. After the completion of enzymatic reaction, ADP-Glo Reagent-1 (Promega, V9103) was added thereto at a concentration of 2.5 μL/well, and the plate was left standing at room temperature for 60 minutes. Then, ADP-Glo Reagent-2 (Promega) was added thereto at a concentration of 5 μL/well, and the plate was left standing at room temperature for 60 minutes. The amount of ADP generated by the autophosphorylation of ROS1 was measured using EnVision (PerkinElmer Japan). The amount of ADP generated in four separate measurements was defined as the autophosphorylation intensity of ROS1. IC50 values were calculated by curve fitting using GraphPad Prism version 4 (GraphPad software).

[3] = test system: HCC78 cells having ROS1 fusion gene; experiment: HCC78 cell growth assay (CellTiter-Glo); type: cell-based; settings: Homo sapiens, HCC78, 72 h, 72 hours culture, 2% FBS medium, luminescence, four separate measurements; read-out: growth inhibitory effect on HCC78 cells having ROS1 fusion gene IC50
Method: Each compound of the present invention was assayed for its cell growth inhibitory effect using HCC78 cells having ROS1 fusion gene.
The suspension was dispensed at a concentration of 100 μL/well to a 96-well culture plate for cell culture (SUMITOMO BAKELITE, Cat No MS-0096S) (hereinafter, referred to as an assay plate). […] In this context, the final concentration of DMSO was set to 0.4%. Then, the cells were cultured for 72 hours in a CO2 incubator.
CellTiter-Glo Luminescent Cell Viability Assay reagent (Promega, Cat No G7571) was dispensed at a concentration of 100 μL/well to the assay plate. The contents in each well were reacted at room temperature for 10 minutes while stirred using a plate mixer. […] The luminescence intensity of each well was measured using EnVision. The luminescence intensity of each well obtained in four separate measurements was defined as the number of cells. IC50 values were calculated by curve fitting using GraphPad Prism version 4.

| IC50 (ROS1 [1]) [nM] | IC50 (ROS1 [2]) [nM] | IC50 [3] [nM] | Compound |
| --- | --- | --- | --- |
| 1 to 10 | 100 to 150 | 100 to 600 | Fc1cccc(COc2ccc3ncc(-c4ccc(O[C@@H]5CCNC5)cc4)n3n2)c1 [Example 13, 6-[(3-Fluorophenyl)methoxy]-3-[4-[(3R)-pyrrolidin-3-yl]oxyphenyl]imidazo[1,2-b]pyridazine] |
| 1 to 10 | 100 to 150 | 20 to 100 | OCCN1CCC[C@H]1COc1cccc(-c2cnc3ccc(NCc4ccccc4)nn23)c1 [Example 7, 2-[(2S)-2-[[3-[6-(Benzylamino)imidazo[1,2-b]pyridazin-3-yl]phenoxy]methyl]pyrrolidin-1-yl]ethanol] |
| 1 to 10 | < 20 | 20 to 100 | CNCCCOc1ccc(-c2cnc3ccc(N[C@H](C)c4cccc(F)c4)nn23)cc1 [Example 31] |
| < 1 | < 20 | < 20 | CNCCOc1ccc(-c2cnc3ccc(N[C@H](C)c4cccc(F)c4)nn23)cn1 [Example 46, N-[(1R)-1-(3-Fluorophenyl)ethyl]-3-[6-[2-(methylamino)ethoxy]-3-pyridyl]imidazo[1,2-b]pyridazin-6-amine] |
| < 1 | < 20 | < 20 | C[C@@H](Nc1ccc2ncc(-c3ccc(OC[C@@H](N)[C@@H](C)O)cc3)n2n1)c1cccc(F)c1 [Example 54, (2R,3R)-3-Amino-4-[4-[6-[[(1R)-1-(3-fluorophenyl)ethyl]amino]imidazo[1,2-b]pyridazin-3-yl]phenoxy]butan-2-ol] |
| 1 to 10 | 20 to 100 | 20 to 100 | c1ccc(CNc2ccc3ncc(-c4ccc(O[C@@H]5CCNC5)cc4)n3n2)cc1 [Example 3, N-Benzyl-3-[4-[(3R)-pyrrolidin-3-yl]oxyphenyl]imidazo[1,2-b]pyridazin-6-amine] |
| 1 to 10 | < 20 | 20 to 100 | CNCCCOc1cccc(-c2cnc3ccc(N[C@H](C)c4cccc(F)c4)nn23)c1 [Example 66, N-[(1R)-1-(3-Fluorophenyl)ethyl]-3-[3-[3-(methylamino)propoxy]phenyl]imidazo[1,2-b]pyridazin-6-amine] |
| 1 to 10 | 20 to 100 | 100 to 600 | CCN(Cc1ccccc1)c1ccc2ncc(-c3ccc(N4C[C@@H](N)CC4=O)cc3)n2n1 [Example 95, (4S)-4-Amino-1-[4-[6-[benzo(ethyl)amino]imidazo[1,2-b]pyridazin-3-yl]phenyl]pyrrolidin-2-one] |
| 1 to 10 | < 20 | 20 to 100 | C[C@@H](Nc1ccc2ncc(-c3cccc(N4C[C@@H](N)CC4=O)c3)n2n1)c1cccc(F)c1 [Example 91, (4S)-4-Amino-1-[3-[6-[[(1R)-1-(3-fluorophenyl)ethyl]amino]imidazo[1,2-b]pyridazin-3-yl]phenyl]pyrrolidin-2-one] |
| < 1 | 20 to 100 | 20 to 100 | C[C@@H](Oc1ccc2ncc(-c3ccc(OC[C@@H]4CCN4)cc3)n2n1)c1cccc(F)c1 [Example 18, 3-[4-[[(2S)-Azetidin-2-yl]methoxy]phenyl]-6-[(1R)-1-(3-fluorophenyl)ethoxy]imidazo[1,2-b]pyridazine hydrochloride] |
| < 1 | < 20 | < 20 | C[C@@H](Nc1ccc2ncc(-c3ccc(OCC(N)CO)cc3)n2n1)c1cccc(F)c1 (stereo partly drawn) [Example 45, 2-Amino-3-[4-[6-[[(1R)-1-(3-fluorophenyl)ethyl]amino]imidazo[1,2-b]pyridazin-3-yl]phenoxy]propan-1-ol] |
| 1 to 10 | < 20 | 100 to 600 | C[C@@H](Nc1ccc2ncc(-c3ccc(OCC4CNC4)cc3)n2n1)c1cccc(F)c1 [Example 27, 3-[4-(Azetidin-3-ylmethoxy)phenyl]-N-[(1R)-1-(3-fluorophenyl)ethyl]imidazo[1,2-b]pyridazin-6-amine] |
| < 1 | < 20 | < 20 | C[C@@H](Nc1ccc2ncc(-c3ccc(OCCNCCO)cc3)n2n1)c1cccc(F)c1 [Example 42, 2-[2-[4-[6-[[(1R)-1-(3-Fluorophenyl)ethyl]amino]imidazo[1,2-b]pyridazin-3-yl]phenoxy]ethylamino]ethanol] |
| < 1 | < 20 | < 20 | NC1CC(=O)N(c2ccc(-c3cnc4ccc(NCc5ccccc5)nn34)cc2)C1 (stereo not drawn) [Example 72, 4-Amino-1-[4-[6-(benzylamino)imidazo[1,2-b]pyridazin-3-yl]phenyl]pyrrolidin-2-one] |
| 1 to 10 | < 20 | 20 to 100 | CNCCOc1cccc(-c2cnc3ccc(N[C@H](C)c4cccc(F)c4)nn23)c1 [Example 58, N-[(1R)-1-(3-Fluorophenyl)ethyl]-3-[3-[2-(methylamino)ethoxy]phenyl]imidazo[1,2-b]pyridazin-6-amine] |
| 1 to 10 | 20 to 100 | 100 to 600 | NC1CCN(c2ccc(-c3cnc4ccc(OCc5cccc(F)c5)nn34)cc2)C1=O (stereo not drawn) [Example 75, 3-Amino-1-[4-[6-[(3-fluorophenyl)methoxy]imidazo[1,2-b]pyridazin-3-yl]phenyl]pyrrolidin-2-one] |
| < 1 | < 20 | 20 to 100 | C[C@@H](Nc1ccc2ncc(-c3ccc(OC[C@@H]4CC(F)CN4)cc3)n2n1)c1cccc(F)c1 (stereo in doubt) [Example 33, N-[(1R)-1-(3-Fluorophenyl)ethyl]-3-[4-[[(2S,4S)-4-fluoropyrrolidin-2-yl]methoxy]phenyl]imidazo[1,2-b]pyridazin-6-amine] |
| < 1 | < 20 | < 20 | C[C@H](N)COc1ccc(-c2cnc3ccc(N[C@H](C)c4cccc(F)c4)nn23)cn1 [Example 63, 3-[6-[(2S)-2-Aminopropoxy]-3-pyridyl]-N-[(1R)-1-(3-fluorophenyl)ethyl]imidazo[1,2-b]pyridazin-6-amine] |
| 1 to 10 | < 20 | < 20 | CN(Cc1cncc(F)c1)c1ccc2ncc(-c3ccc(N4CC(C)(N)CC4=O)cc3)n2n1 (single isomer, unassigned) [Example 124, 4-Amino-1-[4-[6-[(5-fluoro-3-pyridyl)methyl-methylamino]imidazo[1,2-b]pyridazin-3-yl]phenyl]-4-methylpyrrolidin-2-one] |
| 10 to 60 | 100 to 150 | 100 to 600 | CC(Oc1ccc2ncc(-c3ccc(N4C[C@@H](N)CC4=O)cc3)n2n1)c1cn(C(F)F)nn1 (stereo partly drawn) [Example 115, (4S)-4-Amino-1-[4-[6-[1-[1-(difluoromethyl)triazol-4-yl]ethoxy]imidazo[1,2-b]pyridazin-3-yl]phenyl]pyrrolidin-2-one] |
| < 1 | < 20 | < 20 | C[C@@H](N)COc1ccc(-c2cnc3ccc(N[C@H](C)c4cccc(F)c4)nn23)cn1 [Example 53, 3-[6-[(2R)-2-Aminopropoxy]-3-pyridyl]-N-[(1R)-1-(3-fluorophenyl)ethyl]imidazo[1,2-b]pyridazin-6-amine] |

| Compound | IC50 (ROS1 [1]) [nM] | IC50 (ROS1 [2]) [nM] | IC50 [3] [nM] |
| --- | --- | --- | --- |
| C[C@@H](Nc1ccc2ncc(-c3ccc(O[C@H]4CCC[C@H]4N)cc3)n2n1)c1cccc(F)c1 [Example 40, 3-[4-[(1S,2R)-2-Aminocyclopentoxy]phenyl]-N-[(1R)-1-(3-fluorophenyl)ethyl]imidazo[1,2-b]pyridazin-6-amine] | < 1 | < 20 | < 20 |
